Where only a bound is given, the exact number is not on record here.

Experimental findings from patent publication US20070059785A1, “Biomarkers in cancer” (SMITHKLINE BEECHAM CORPORATION, priority 2003, published 2007) are described below.

One series has as its system Erk1/2. Nature of the series: Western blot of activated Erk1/2 (p-Erk1/2) in S1 cells. The format is cell-based, human. The settings on record: 72 h. The source says: Proteins were transferred to Immobilon-P or nitrocellulose membranes.
ErbB2 overexpression is associated with the activation of downstream pathways involved in the propagation of proliferative signals such as Erk1/2 MAP kinases (Janes et al., Oncogene, 9:3601(1994)). […].
On the technique in general: In western blotting, separated proteins are transferred to a membrane and probed.

Series [1] in a line: Plasma concentration in patients. In kind it is in vivo, human. The settings on record: oral once a day.
A further series concerns TGFα. Nature of the series: Clinical tumor biopsies, TGFα by IHC. The note with it: patient 425, inflammatory breast cancer, 1200 mg/d ditosylate salt, day 21 (day 0: 32).
A further series deals with erbB2 (Homo sapiens, UniProt P04626). The series can be described thus: Clinical tumor biopsies, total erbB2 by IHC.
Chain of erbB2 (P04626 23-1255): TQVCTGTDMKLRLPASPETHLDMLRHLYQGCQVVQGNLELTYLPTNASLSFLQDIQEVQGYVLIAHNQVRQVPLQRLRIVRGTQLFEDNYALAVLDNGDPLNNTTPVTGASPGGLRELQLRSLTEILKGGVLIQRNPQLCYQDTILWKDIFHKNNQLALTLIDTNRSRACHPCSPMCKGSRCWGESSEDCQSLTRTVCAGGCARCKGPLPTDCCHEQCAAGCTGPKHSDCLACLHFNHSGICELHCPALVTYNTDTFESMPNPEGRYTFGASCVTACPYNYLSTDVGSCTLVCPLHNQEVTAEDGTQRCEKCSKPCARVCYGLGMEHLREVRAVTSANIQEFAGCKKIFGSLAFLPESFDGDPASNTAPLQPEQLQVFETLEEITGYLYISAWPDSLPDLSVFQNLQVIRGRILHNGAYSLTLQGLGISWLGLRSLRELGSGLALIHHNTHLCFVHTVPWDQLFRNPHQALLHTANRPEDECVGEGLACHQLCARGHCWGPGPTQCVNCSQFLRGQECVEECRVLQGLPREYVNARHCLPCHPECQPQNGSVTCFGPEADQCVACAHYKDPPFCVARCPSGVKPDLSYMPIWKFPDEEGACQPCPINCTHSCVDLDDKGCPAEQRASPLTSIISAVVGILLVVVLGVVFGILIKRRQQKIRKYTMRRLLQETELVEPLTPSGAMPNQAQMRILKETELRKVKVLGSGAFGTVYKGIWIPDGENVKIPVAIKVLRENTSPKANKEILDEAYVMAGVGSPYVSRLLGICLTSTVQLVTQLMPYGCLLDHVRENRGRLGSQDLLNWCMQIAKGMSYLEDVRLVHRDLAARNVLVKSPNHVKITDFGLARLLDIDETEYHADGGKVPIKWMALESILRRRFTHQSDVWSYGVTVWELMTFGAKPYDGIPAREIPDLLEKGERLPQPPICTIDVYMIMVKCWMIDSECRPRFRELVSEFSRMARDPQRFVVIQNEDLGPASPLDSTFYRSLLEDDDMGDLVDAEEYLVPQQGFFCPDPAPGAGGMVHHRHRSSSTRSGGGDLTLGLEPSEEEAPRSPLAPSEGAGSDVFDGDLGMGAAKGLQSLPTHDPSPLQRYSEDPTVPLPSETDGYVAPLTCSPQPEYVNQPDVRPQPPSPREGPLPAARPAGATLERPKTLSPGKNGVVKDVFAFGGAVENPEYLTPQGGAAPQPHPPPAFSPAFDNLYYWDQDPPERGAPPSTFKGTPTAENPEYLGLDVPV

Excerpt for TGFα: Erk1/2 (1:1200), erbB3 (1:10), heregulin (1:25), and TGFα (1:20) were also immunostained using the BenchMark™ with I-VIEW detection chemistry.
(§1) All subjects provided written informed consent.
“TGFα” refers to Transforming Growth Factor alpha as measured by immunohistochemistry and reported in OD;
Excerpt for erbB2: as §1
“erbB2” refers to total erbB2 as measured by immunohistochemistry and reported in OD;

As to `CS(=O)(=O)CCNCc1ccc(-c2ccc3ncnc(Nc4ccc(OCc5cccc(F)c5)c(Cl)c4)c3c2)o1` [GW572016, N-{3-Chloro-4-[(3-fluorobenzyl)oxy]phenyl}-6-[5-({[2-(methylsulfonyl)ethyl]amino}methyl)-2-furyl]-4-quinazolinamine], in the series with Erk1/2 (0.5-5 μM), the “total steady state Erk protein” value is recorded as “remained unchanged”. Also, the inhibition at 0.5 µM in the series with Erk1/2 (Homo sapiens, 500 nM, vs vehicle, read-out: inhibition of activated, phosphorylated Erk1/2 (p-Erk)) is greater than 50%. Further, the inhibition at 2.5 µM in the series on Erk1/2 (Homo sapiens, 2.5 μM, vs vehicle, read-out: inhibition of activated, phosphorylated Erk1/2 (p-Erk)) is greater than 50%. Also, the inhibition at 5 µM with Erk1/2 (Homo sapiens, 5 μM, vs vehicle, read-out: inhibition of activated, phosphorylated Erk1/2 (p-Erk)) was 100%. Further, the “time by which steady state plasma concentrations were achieved” value in series [1] is on record as no more than 21 days. Besides, the TGFa in the series with TGFα came out at 22 OD. The “total erbB2 protein” value on erbB2 (patient 361, 1200 mg/day) is listed as “no effect”. Also, on erbB2 (patient 425, inflammatory breast cancer, 1200 mg/d ditosylate salt, day 21 (day 0: 62)), the ErbB2 turned out to be 68 OD.
